Source: US20110124674A1, “5/5-OR 5/6-MEMBERED CONDENSED RING CYCLOALKYLAMINE DERIVATIVE” (priority 2008, published 2011)

Target: T1, human MCH-1R (Homo sapiens, UniProt Q99705)
T1 construct: expressed in transfected cells; host or cells: CHO-K1 (American Type Culture Collection), vector pEF/myc/cyto
Test: MCH binding inhibition test ([125I]MCH binding to membranes of MCH-1R expressing CHO-K1 cells)
Conditions: membranes of CHO-K1 cells expressing human MCH-1R; 50 pM [125I]MCH; 25° C., 1 hour; pH 7.4; read-out: IC50 (50% inhibition concentration of test compound to the specific [125I]MCH binding)
Source text: Pharmacological Test Example: MCH Binding Inhibition Test
A human MCH-1R encoding cDNA sequence [FEBS Letters, Vol. 398, 253 (1996); Biochimica et Biophisica Acta, Vol. 1401, 216 (1998)] was cloned to a plasmid vector pEF/myc/cyto (by Invitrogen Corporation). The obtained expression vector was transfected to host cells CHO-K1 (American Type Culture Collection) using Lipofectamine Plus Reagent (by Life Technology Inc.) to provide MCH-1R expression cells.
Membrane samples prepared from the MCH-1R expression cells were incubated with each test compound and 50 pM of [^125I]MCH (by NEN Co.), in an assay buffer (50 mM Tris buffer comprising 10 mM magnesium chloride, 2 mM ethylenediamine tetraacetate, 0.01% bacitracin and 0.2% bovine serum albumin; pH 7.4) at 25° C. for an hour, followed by filtration through a glass filter GF/C (by Wattman Co.). After washing the glass filter with 50 mM Tris buffer (pH 7.4) comprising 10 mM magnesium chloride, 2 mM ethylenediamine tetraacettic acid and 0.04% Tween-20, the radio activity on the glass filter was measured. The non-specific binding was measured in the presence of 1 μM human MCH, and the 50% inhibition concentration (IC50 value) of each test compound to the specific [^125I]MCH binding was determined.

T1 sequence (Q99705 whole entry): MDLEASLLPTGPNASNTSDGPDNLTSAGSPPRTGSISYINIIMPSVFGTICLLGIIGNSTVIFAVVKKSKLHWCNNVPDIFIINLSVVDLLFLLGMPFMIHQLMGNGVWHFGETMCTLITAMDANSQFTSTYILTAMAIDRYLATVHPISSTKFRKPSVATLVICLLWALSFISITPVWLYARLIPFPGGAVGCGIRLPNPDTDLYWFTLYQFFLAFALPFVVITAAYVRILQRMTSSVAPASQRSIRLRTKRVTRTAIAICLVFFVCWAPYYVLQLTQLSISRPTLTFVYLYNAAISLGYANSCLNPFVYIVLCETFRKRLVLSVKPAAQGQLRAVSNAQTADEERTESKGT

SMILES | IC50 [nM]
C#CCn1cc(CN2CCC(NC(=O)c3cc(OC)c(C)c(OC)c3)CC2)c2ccccc21 [Example 2-10, 4-methyl-3,5-bis(methyloxy)-N-(1-{[1-(2-propyn-1-yl)-1H-indol-3-yl]methyl}-4-piperidinyl)benzamide] | 22
COc1cc(C(=O)NC2CCN(Cc3c(C)n(C)c4ccccc34)CC2)cc(OC)c1C [Example 2-5, N-{1-[(1,2-dimethyl-1H-indol-3-yl)methyl]-4-piperidinyl}-4-methyl-3,5-bis(methyloxy)benzamide] | 26

These reach a lower IC50. Values come first.

IC50 [nM] | SMILES
6.8 | COc1cc(C(=O)NC2CCN(Cc3[nH]c4ccccc4c3C)CC2)cc(OC)c1C [Example 2-18, 4-methyl-N-{1-[(3-methyl-1H-indol-2-yl)methyl]-4-piperidinyl}-3,5-bis(methyloxy)benzamide]
16 | COc1cc(C(=O)NC2CCN(Cc3cc4sccc4n3C)CC2)cc(OC)c1C [Example 2-25, 4-methyl-3,5-bis(methyloxy)-N-{1-[(4-methyl-4H-thieno[3,2-b]pyrrol-5-yl)methyl]-4-piperidinyl]benzamide]
13 | COc1cc(C(=O)NC2CCN(Cc3cn(C)c4ccccc34)CC2)cc(OC)c1C [Example 2-2, 4-methyl-N-{1-[(1-methyl-1-H-indol-3-yl)methyl]-4-piperidinyl}-3,5-bis(methyloxy)benzamide]
